This is an account of results in article PMC10323144, “Garbage in, garbage out: how reliable training data improved a virtual screening approach against SARS-CoV-2 MPro” (Frontiers in Pharmacology, 2023).

The target of the assay is SARS-CoV-2 MPro (Severe acute respiratory syndrome coronavirus 2, UniProt P0DTD1). Nature of the assay: MPro activity assay (de-quenching of Edans fluorescence on cleavage of a Dabcyl/Edans peptide). The format is biochemical. The settings on record: in-house acquired data, internal screening under standardized conditions (128 compounds).
Take `COc1ccc(C2C(C(=O)c3ccc(OC)c(OC)c3)=C(O)C(=O)N2c2nc3ccc(OC)cc3s2)cc1` (stereo not drawn) [ADKPN162]: the “Class (MPro activity class)” value is listed as 0 (compounds with IC50 > 20 μM, percentage inhibition <80% at 20 µM or 50 μM, or percentage enzyme inhibition <50% at 10 µM were labelled as INACTIVE). Next, `COc1ccc(C2C(C(=O)c3ccc(OC)c(OC)c3)=C(O)C(=O)N2c2nc3ccc(Cl)cc3s2)cc1` (stereo not drawn) [ADKPN163]: 0 (compounds with IC50 > 20 μM, percentage inhibition <80% at 20 µM or 50 μM, or percentage enzyme inhibition <50% at 10 µM were labelled as INACTIVE); `COc1ccc(C(=O)C2=C(O)C(=O)N(c3nc4ccc(Cl)cc4s3)C2c2ccc(F)cc2)cc1OC` (stereo not drawn) [ADKPN164]: 0 (compounds with IC50 > 20 μM, percentage inhibition <80% at 20 µM or 50 μM, or percentage enzyme inhibition <50% at 10 µM were labelled as INACTIVE). Take `COc1ccc(C2C(C(=O)c3ccc4c(c3)OCCO4)=C(O)C(=O)N2c2nc3ccccc3s2)cc1` (stereo not drawn) [ADKPN165]: the “Class (MPro activity class)” value is recorded as 0 (compounds with IC50 > 20 μM, percentage inhibition <80% at 20 µM or 50 μM, or percentage enzyme inhibition <50% at 10 µM were labelled as INACTIVE). Consider `O=C(C1=C(O)C(=O)N(c2nc3ccc(Cl)cc3s2)C1c1ccc(F)cc1)c1ccc2c(c1)OCCO2` (stereo not drawn) [ADRMC150], for which the “Class (MPro activity class)” value is on record as 0 (compounds with IC50 > 20 μM, percentage inhibition <80% at 20 µM or 50 μM, or percentage enzyme inhibition <50% at 10 µM were labelled as INACTIVE). Under `Cc1ccc2nc(N3C(=O)C(O)=C(C(=O)c4ccc5c(c4)OCCO5)C3c3ccccc3)sc2c1` (stereo not drawn) [ADRMC151] stands 0 (compounds with IC50 > 20 μM, percentage inhibition <80% at 20 µM or 50 μM, or percentage enzyme inhibition <50% at 10 µM were labelled as INACTIVE). Next, `COc1cc(C2C(C(=O)c3ccc4c(c3)OCCO4)=C(O)C(=O)N2c2nc3ccc(C)cc3s2)ccc1O` (stereo not drawn) [ADRMC152]: 0 (compounds with IC50 > 20 μM, percentage inhibition <80% at 20 µM or 50 μM, or percentage enzyme inhibition <50% at 10 µM were labelled as INACTIVE); `COc1ccc(C2C(C(=O)c3ccc4c(c3)OCCO4)=C(O)C(=O)N2c2nc3ccc(C)cc3s2)cc1OC` (stereo not drawn) [ADRMC153]: 0 (compounds with IC50 > 20 μM, percentage inhibition <80% at 20 µM or 50 μM, or percentage enzyme inhibition <50% at 10 µM were labelled as INACTIVE).

`Cc1ccc2nc(N3C(=O)C(O)=C(C(=O)c4ccc5c(c4)OCCO5)C3c3ccc(F)cc3)sc2c1` (stereo not drawn) [ADRMC154]: the “Class (MPro activity class)” value is 0 (compounds with IC50 > 20 μM, percentage inhibition <80% at 20 µM or 50 μM, or percentage enzyme inhibition <50% at 10 µM were labelled as INACTIVE). For the molecule `COc1ccc2nc(N3C(=O)C(O)=C(C(=O)c4ccc5c(c4)OCCO5)C3c3ccc(OC)c(OC)c3)sc2c1` (stereo not drawn) [ADRMC155], the “Class (MPro activity class)” value is on record as 0 (compounds with IC50 > 20 μM, percentage inhibition <80% at 20 µM or 50 μM, or percentage enzyme inhibition <50% at 10 µM were labelled as INACTIVE).

Regarding `COc1ccc2nc(N3C(=O)C(O)=C(C(=O)c4ccc5c(c4)OCCO5)C3c3ccc(O)c(OC)c3)sc2c1` (stereo not drawn) [ADRMC156], the “Class (MPro activity class)” value is listed as 0 (compounds with IC50 > 20 μM, percentage inhibition <80% at 20 µM or 50 μM, or percentage enzyme inhibition <50% at 10 µM were labelled as INACTIVE). Next, `COc1ccc(C2C(C(=O)c3ccc4c(c3)OCCO4)=C(O)C(=O)N2c2nc3ccc(Cl)cc3s2)cc1OC` (stereo not drawn) [ADRMC157]: 0 (compounds with IC50 > 20 μM, percentage inhibition <80% at 20 µM or 50 μM, or percentage enzyme inhibition <50% at 10 µM were labelled as INACTIVE); `COc1cc(C2C(C(=O)c3ccc4c(c3)OCCO4)=C(O)C(=O)N2c2nc3ccc(Cl)cc3s2)ccc1O` (stereo not drawn) [ADRMC158]: 0 (compounds with IC50 > 20 μM, percentage inhibition <80% at 20 µM or 50 μM, or percentage enzyme inhibition <50% at 10 µM were labelled as INACTIVE); `O=C(C1=C(O)C(=O)N(c2nc3ccc(Cl)cc3s2)C1c1ccccc1)c1ccc2c(c1)OCCO2` (stereo not drawn) [ADRMC159]: 0 (compounds with IC50 > 20 μM, percentage inhibition <80% at 20 µM or 50 μM, or percentage enzyme inhibition <50% at 10 µM were labelled as INACTIVE). For `COC(=O)CN1C(=O)C(C2C(=O)OCC2c2ccccc2)C1C=Cc1ccccc1` (stereo not drawn) [CMD111], the “Class (MPro activity class)” value is reported as 0 (compounds with IC50 > 20 μM, percentage inhibition <80% at 20 µM or 50 μM, or percentage enzyme inhibition <50% at 10 µM were labelled as INACTIVE). Regarding `O=c1[nH]sc2ccccc12` [COV19001], the “Class (MPro activity class)” value is 1 (Compounds with IC50 < 10 µM or with a percentage of enzyme inhibition >50% at 10 µM were labelled as ACTIVE). `Cc1cccc2c(=O)[nH]sc12` [COV19002]: the “Class (MPro activity class)” value is reported as 0 (compounds with IC50 > 20 μM, percentage inhibition <80% at 20 µM or 50 μM, or percentage enzyme inhibition <50% at 10 µM were labelled as INACTIVE). Turning to `O=c1c2ccccc2sn1Cc1ccc(F)cc1` [COV19003], the “Class (MPro activity class)” value is reported as 1 (Compounds with IC50 < 10 µM or with a percentage of enzyme inhibition >50% at 10 µM were labelled as ACTIVE). Next, `O=c1c2ccccc2sn1Cc1ccc(C(F)(F)F)cc1` [COV19004]: 1 (Compounds with IC50 < 10 µM or with a percentage of enzyme inhibition >50% at 10 µM were labelled as ACTIVE); `Cc1cc(Cl)cc2sn(Cc3ccccc3)c(=O)c12` [COV19006]: 1 (Compounds with IC50 < 10 µM or with a percentage of enzyme inhibition >50% at 10 µM were labelled as ACTIVE); `Cc1cccc2c(=O)n(Cc3ccccc3)sc12` [COV19007]: 0 (compounds with IC50 > 20 μM, percentage inhibition <80% at 20 µM or 50 μM, or percentage enzyme inhibition <50% at 10 µM were labelled as INACTIVE).

Regarding `COc1ccc(Cn2sc3ccccc3c2=O)cc1` [COV19009], the “Class (MPro activity class)” value is recorded as 1 (Compounds with IC50 < 10 µM or with a percentage of enzyme inhibition >50% at 10 µM were labelled as ACTIVE).

Consider `O=c1c2ccccc2sn1-c1ccccc1` [COV19010], for which the “Class (MPro activity class)” value is listed as 1 (Compounds with IC50 < 10 µM or with a percentage of enzyme inhibition >50% at 10 µM were labelled as ACTIVE).

Consider `Cc1cccc(Cl)c1-n1sc2ccccc2c1=O` [COV19011], for which the “Class (MPro activity class)” value is given as 1 (Compounds with IC50 < 10 µM or with a percentage of enzyme inhibition >50% at 10 µM were labelled as ACTIVE). `O=c1c2ccccc2sn1-c1ccc(C(F)(F)F)cc1` [COV19012]: the “Class (MPro activity class)” value is 1 (Compounds with IC50 < 10 µM or with a percentage of enzyme inhibition >50% at 10 µM were labelled as ACTIVE). As to `O=c1c2ccccc2sn1-c1ccc2ccccc2c1` [COV19013], the “Class (MPro activity class)” value is 1 (Compounds with IC50 < 10 µM or with a percentage of enzyme inhibition >50% at 10 µM were labelled as ACTIVE).

On to `O=c1c2ccccc2sn1-c1ccc([N+](=O)[O-])cc1` [COV19014], for which the “Class (MPro activity class)” value is 1 (Compounds with IC50 < 10 µM or with a percentage of enzyme inhibition >50% at 10 µM were labelled as ACTIVE). Take `Cc1ccc(-n2sc3ccccc3c2=O)cc1` [COV19015]: the “Class (MPro activity class)” value is reported as 1 (Compounds with IC50 < 10 µM or with a percentage of enzyme inhibition >50% at 10 µM were labelled as ACTIVE). Next, `O=c1c2ccccc2sn1-c1ccc(Cl)cc1` [COV19016]: 1 (Compounds with IC50 < 10 µM or with a percentage of enzyme inhibition >50% at 10 µM were labelled as ACTIVE); `Cc1cccc2c(=O)n(-c3ccccc3)sc12` [COV19017]: 0 (compounds with IC50 > 20 μM, percentage inhibition <80% at 20 µM or 50 μM, or percentage enzyme inhibition <50% at 10 µM were labelled as INACTIVE); `Cc1ccc(-n2sc3cc(Cl)cc(C)c3c2=O)cc1` [COV19018]: 1 (Compounds with IC50 < 10 µM or with a percentage of enzyme inhibition >50% at 10 µM were labelled as ACTIVE).

For `CCOC(=O)c1ncc(-n2sc3ccccc3c2=O)s1` [COV19019], the “Class (MPro activity class)” value is recorded as 1 (Compounds with IC50 < 10 µM or with a percentage of enzyme inhibition >50% at 10 µM were labelled as ACTIVE).

Consider `O=C1NCCCCC1n1sc2ccccc2c1=O` (stereo not drawn) [COV19020], for which the “Class (MPro activity class)” value is 1 (Compounds with IC50 < 10 µM or with a percentage of enzyme inhibition >50% at 10 µM were labelled as ACTIVE). Under `O=c1c2ccccc2sn1-c1nc2cc(Sc3ccccc3)ccc2[nH]1` [COV19021] stands 1 (Compounds with IC50 < 10 µM or with a percentage of enzyme inhibition >50% at 10 µM were labelled as ACTIVE). Next, `O=C(Cn1ccnc1NC(=O)c1ccccc1I)NCc1ccccc1` [COV19022]: 0 (compounds with IC50 > 20 μM, percentage inhibition <80% at 20 µM or 50 μM, or percentage enzyme inhibition <50% at 10 µM were labelled as INACTIVE); `O=C(Cn1ccnc1-n1sc2ccccc2c1=O)NCc1ccccc1` [COV19023]: 0 (compounds with IC50 > 20 μM, percentage inhibition <80% at 20 µM or 50 μM, or percentage enzyme inhibition <50% at 10 µM were labelled as INACTIVE).

In the case of `COc1ccc(CNC(=O)c2ccccc2I)cc1` [COV19024], the “Class (MPro activity class)” value is given as 0 (compounds with IC50 > 20 μM, percentage inhibition <80% at 20 µM or 50 μM, or percentage enzyme inhibition <50% at 10 µM were labelled as INACTIVE). For the molecule `Cc1ccc(NC(=O)c2ccccc2I)cc1` [COV19025], the “Class (MPro activity class)” value is 0 (compounds with IC50 > 20 μM, percentage inhibition <80% at 20 µM or 50 μM, or percentage enzyme inhibition <50% at 10 µM were labelled as INACTIVE). Next, `O=C(Nc1ccccc1)c1ccccc1I` [COV19026]: 0 (compounds with IC50 > 20 μM, percentage inhibition <80% at 20 µM or 50 μM, or percentage enzyme inhibition <50% at 10 µM were labelled as INACTIVE).

Consider `O=C(Nc1ccc(Cl)cc1)c1ccccc1I` [COV19027], for which the “Class (MPro activity class)” value was 0 (compounds with IC50 > 20 μM, percentage inhibition <80% at 20 µM or 50 μM, or percentage enzyme inhibition <50% at 10 µM were labelled as INACTIVE). Next, `Cc1cccc(Cl)c1NC(=O)c1ccccc1I` [COV19028]: 0 (compounds with IC50 > 20 μM, percentage inhibition <80% at 20 µM or 50 μM, or percentage enzyme inhibition <50% at 10 µM were labelled as INACTIVE); `O=C(Nc1nc2cc(Sc3ccccc3)ccc2[nH]1)c1ccccc1I` [COV19029]: 0 (compounds with IC50 > 20 μM, percentage inhibition <80% at 20 µM or 50 μM, or percentage enzyme inhibition <50% at 10 µM were labelled as INACTIVE).
